Assay results from ChEMBL document CHEMBL1124625, “Flavones. 2. Synthesis and structure-activity relationship of flavodilol and its analogues, a novel class of antihypertensive agents with catecholamine depleting properties” (J Med Chem, 1989).
Activity calls are given as the source filed them. The rule behind the calls is not given here.

How the values were obtained:
Rattus norvegicus [1] = test: Systolic blood pressure (SBP) in anesthetized spontaneously hypertensive rats(SHR) at 7.5 hours after administration of 75 mg/kg dose perorally; assay type: functional; conditions: route oral
Rattus norvegicus [2] = test: Systolic blood pressure (SBP) in anesthetized spontaneously hypertensive rats (SHR) before administration of 75 mg/kg dose perorally.; assay type: functional; set-up: unit: mmHg; conditions: route oral
Rattus norvegicus [3] = test: Systolic blood pressure (SBP) in anesthetized spontaneously hypertensive rats(SHR) at 7.5 hours after administration of 75 mg/kg dose perorally; NS is not statistically significant
Rattus norvegicus [4] = test: Systolic blood pressure (SBP) in anesthetized spontaneously hypertensive rats(SHR) at 7.5 hours after administration of 75 mg/kg dose perorally; NS is not statistically significant.
Rattus norvegicus [5] = test: Systolic blood pressure (SBP) in anesthetized spontaneously hypertensive rats(SHR) at 7.5 hours after administration of 35 mg/kg dose perorally; assay type: functional; conditions: route oral
Adrenergic receptor beta [6] = target: T1, Adrenergic receptor beta (Rattus norvegicus, UniProt P18090+P10608+P26255); test: Inhibition constant obtained from beta adrenergic receptor binding assay; assay type: protein assay
Rattus norvegicus [7] = test: Systolic blood pressure (SBP) in anesthetized spontaneously hypertensive rats(SHR) before administration of 35 mg/kg dose perorally; assay type: functional; set-up: unit not given here; conditions: route oral
Adrenergic receptor beta [8] = target: T1, Adrenergic receptor beta
Description: Inhibition constant from beta adrenergic receptor binding assay

Cavia porcellus [9] = species: Cavia porcellus; test: Inhibition of the isoproterenol response at a dose of 1 x 10e -4M in guinea pig; slight inhibition was found.; assay type: functional, organism-based
Rattus norvegicus [10] = test: Systolic blood pressure (SBP) in anesthetized spontaneously hypertensive rats(SHR) before administration of 17 mg/kg dose perorally; assay type: functional; conditions: route oral
Rattus norvegicus [11] = test: Systolic blood pressure (SBP) in anesthetized spontaneously hypertensive rats(SHR) at 7.5 hours after administration of 17 mg/kg dose perorally; assay type: functional; conditions: route oral
Rattus norvegicus [12] = test: Systolic blood pressure (SBP) in anesthetized spontaneously hypertensive rats(SHR) at 7.5 hours after administration of 35 mg/kg dose perorally; NS is not statistically significant
Rattus norvegicus [13] = test: Systolic blood pressure (SBP) in anesthetized spontaneously hypertensive rats(SHR) before administration of 150 mg/kg dose perorally; assay type: functional; conditions: route oral
Cavia porcellus [14] = species: Cavia porcellus; test: Inhibition of the isoproterenol response at a dose of 1 x 10e -4M in guinea pig; slight inhibition was found; assay type: functional, organism-based

Row | SMILES | Systolic blood pressure (Rattus norvegicus [2]) | Decrease in Systolic blood pressure (Rattus norvegicus [3]) | Decrease in Systolic blood pressure (Rattus norvegicus [5]) | Systolic blood pressure (Rattus norvegicus [7]) | other results
1 | CCCNCC(O)COc1ccc2c(=O)c(Cc3ccccc3)c(-c3ccccc3)oc2c1 (configuration not stated) | 198 |  |  |  | Decrease in Systolic blood pressure (Rattus norvegicus [1]): 14%
2 | O=c1cc(-c2ccccc2)oc2cc(OCC(O)CNC3CCS(=O)(=O)C3)ccc12 (configuration not stated) | 196 | Not significant |  |  | 
3 | CC(C)N(Cc1ccccc1)CC(O)COc1ccc2c(=O)cc(-c3ccccc3)oc2c1 (configuration not stated) | 200 |  |  |  | Decrease in Systolic blood pressure (Rattus norvegicus [4]): Not significant
4 | O=c1cc(-c2ccccc2)oc2cc(OCC3CO3)ccc12 (configuration not stated) | 120 |  |  |  | 
5 | CC(C)NCC(O)COc1cccc2ccccc12 (configuration not stated) [PROPRANOLOL] | 212 | inactive |  |  | 
6 | O=c1cc(-c2ccccc2)oc2cc(OCC(O)CNC3CCCCC3)ccc12 (configuration not stated) |  |  | 20% | 201 | Ki (Adrenergic receptor beta [6]): 5.5 µM
7 | O=c1cc(-c2ccccc2)oc2cc(O)ccc12 [7-HYDROXYFLAVONE] | 217 |  |  |  | 
8 | O=c1cc(-c2ccccc2)oc2cc(OCC(O)CNCCO)ccc12 (configuration not stated) | 189 |  |  |  | Decrease in Systolic blood pressure (Rattus norvegicus [4]): Not significant
9 | CC(C)NCC(O)COc1ccc2c(c1)OC(c1ccccc1)CC2=O (configuration not stated) | 198 | Not significant |  |  | 
10 | CC(C)NCC(O)COc1ccc2c(=O)cc(-c3ccc(Cl)cc3)oc2c1 (configuration not stated) |  |  | 19% | 192 | 
11 | CCNCC(O)COc1ccc2c(=O)cc(-c3ccccc3)oc2c1 (configuration not stated) |  |  | 16% | 186 | Ki (Adrenergic receptor beta [8]): 7.5 µM
12 | NCC(O)COc1ccc2c(=O)cc(-c3ccccc3)oc2c1 (configuration not stated) | 187 | Not significant |  |  | 
13 | O=c1cc(-c2ccccc2)oc2cc(OCC(O)CNC3CC3)ccc12 (configuration not stated) | 196 |  | 31% | 198 | Activity (Cavia porcellus [9]): Weak activity; Ki (Adrenergic receptor beta [8]): 1.5 µM; Systolic blood pressure (Rattus norvegicus [10]): 197; Decrease in Systolic blood pressure (Rattus norvegicus [11]): 21%; Decrease in Systolic blood pressure (Rattus norvegicus [1]): 32%
14 | CNCC(O)COc1ccc2c(=O)cc(-c3ccccc3)oc2c1 (configuration not stated) |  |  |  | 190 | Decrease in Systolic blood pressure (Rattus norvegicus [12]): Not significant
15 | CC(C)NCC(O)COc1ccc2c(=O)c(Cc3ccccc3)c(-c3ccccc3)oc2c1 (configuration not stated) | 200 | Not significant |  |  | 
16 | CC(C)(C)NCC(O)COc1ccc2c(=O)cc(-c3ccccc3)oc2c1 (configuration not stated) |  |  |  |  | Ki (Adrenergic receptor beta [8]): 18 µM; Systolic blood pressure (Rattus norvegicus [13]): 201
17 | CCCCNCC(O)COc1ccc2c(=O)cc(-c3ccccc3)oc2c1 (configuration not stated) |  |  | 26% | 202 | 
18 | Cc1c(-c2ccccc2)oc2cc(OCC(O)CNC(C)C)ccc2c1=O (configuration not stated) | 208 |  | 10% | 206 | Activity (Cavia porcellus [14]): slight inhibition was found; Decrease in Systolic blood pressure (Rattus norvegicus [1]): 27%
19 | CC(C)NCCCOc1ccc2c(=O)cc(-c3ccccc3)oc2c1 | 204 | Not significant |  |  | 
